Data reported in US4269834A, “Copper complexes of isoquinazolines” (priority 1977, dated 1981).
≈ marks a conversion by molar mass, not a printed value. Where two headings read alike, the source gives them in different places.

Assays:
Type in all cases: cell-based
Mycoplasma gallisepticum = assay: Activity against Mycoplasma gallisepticum (minimum inhibiting concentration); conditions: Table I; for MIC: without added Cu; for MIC with Cu: media containing 50 μg/ml Cu^2+
Source text: (§1) The following tables show some activities--expressed as minimum inhibiting concentration (MIC)--of the prepared compounds against various micro-organisms. The compounds are identified by reference to the Example in which they are described. When more than one compound is mentioned in an Example, they are distinguished by a number between parentheses, corresponding to their order of occurrence, for instance: VI (2) refers to the second compound prepared according to Example VI. The term "with Cu" refers to tests conducted in media containing 50 μg/ml Cu^2+.
(§2) The activities of the following compounds, not mentioned in the Examples, were also measured.

Spiroplasma citri = assay: Activity against Spiroplasma citri (MIC); conditions: for MIC with Cu / MIC: Table III; for MIC with Cu: media containing 50 μg/ml Cu^2+; for MIC: without added Cu; for MIC S.Citri (with Cu): Table IVb, with Cu (50 μg/ml Cu^2+)
Source text: as §1, §2

M. synoviae = assay: Activity against other Mycoplasma species: M. synoviae (MIC); conditions: Table II, with Cu (50 μg/ml Cu^2+)
Source text: as §1

M. meleagridis = assay: Activity against other Mycoplasma species: M. meleagridis (MIC); conditions: Table II, with Cu (50 μg/ml Cu^2+)
Source text: as §1

M. gallisepticum K514 = assay: Development of resistance of M. gallisepticum K514 in the presence of copper ions (repeated MIC determinations); conditions: 100 μg/ml Cu^2+; procedure repeated 12 times
Experimental: It was investigated whether M. gallisepticum K514 develops a resistance against the compounds of Examples IX (1), IX (2), VIIIe and XIIb in the presence of copper ions. The MIC's in the presence of 100 μg/ml Cu^2+ were determined in the usual way. The test tubes containing the highest concentration of each compound in which a considerable growth of micro-organism still occurred, were used for inoculation in a next determination. […] Consequently, no resistance is developed.

M. suipneumoniae = assay: Activity against other Mycoplasma species: M. suipneumoniae (MIC); conditions: Table II, copper complexes, head 'with Cu' possibly not covering these columns
Source text: as §1

M. hyorhinis = assay: Activity against other Mycoplasma species: M. hyorhinis (MIC); conditions: Table II, copper complexes, head 'with Cu' possibly not covering these columns
Source text: as §1

[1] = test system: M. Hyorhinis (tylosin resistent); assay: Activity against other Mycoplasma species: M. Hyorhinis (tylosin resistent) (MIC); conditions: Table II, copper complexes, head 'with Cu' possibly not covering these columns
Source text: as §1

[2] = Mycoplasmoides gallisepticum, read-out: MIC

Structure (SMILES)	MIC (Mycoplasma gallisepticum; [2]) [µg/mL]	MIC with Cu (Mycoplasma gallisepticum) [µg/mL]	MIC with Cu (Spiroplasma citri) [µg/mL]	also measured
CCCCCCCCCCc1ccc2c(N)nc(-c3ccccn3)cc2c1 [VIIIg]	100 (≈ 277 µM)	0.06	0.8	–
CCc1cccc(-c2cc3ccccc3c(N)n2)n1.Cl [IX (2), 1-amino-3-(6-ethyl-2-pyridyl) isoquinoline hydrochloride]	–	0.02	0.2	MIC with Cu (M. synoviae): 0.05 µg/mL; MIC with Cu (M. meleagridis): 0.013 µg/mL; Resistance development: change of MIC (M. gallisepticum K514): without a significant increase of the MIC's
Cc1cccc2cc(-c3ccccn3)nc(N)c12 [VIIIe]	100 (≈ 425 µM)	0.06	0.1	MIC with Cu (M. synoviae): 0.1 µg/mL; MIC with Cu (M. meleagridis): 0.05 µg/mL; Resistance development: change of MIC (M. gallisepticum K514): without a significant increase of the MIC's
Cc1nc(-c2ccccn2)cc2ccccc12 [XIIc (3), 1-methyl-3-(2-pyridyl)isoquinoline]	6 (≈ 27.2 µM)	0.06	0.2	–
CCc1cccc2cc(-c3ccccn3)nc(N)c12 [VIIIf]	> 100	0.05	0.4	–
Cc1ccc2ccc3ccc(C)nc3c2n1.Cc1ccc2ccc3ccc(C)nc3c2n1.O.O=[N+]([O-])[O-].O=[N+]([O-])[O-].[Cu+2] [VI (1), bis(2,9-dimethyl-1,10phenanthroline)cupric nitrate monohydrate]	–	–	–	MIC (Mycoplasma gallisepticum): 0.4 µg/mL; MIC (M. suipneumoniae): 3 µg/mL; MIC (M. hyorhinis): 3 µg/mL; MIC [1]: 1 µg/mL; MIC (Spiroplasma citri): 50 µg/mL
Cc1cccc(-c2cc3ccccc3c(N)n2)n1.Cc1cccc(-c2cc3ccccc3c(N)n2)n1.O=[N+]([O-])[O-].[Cu+] [IIf, Bis[1-amino-3-(6-methyl-2-pyridyl)isoquinoline]cuprous nitrate]	–	0.03	–	MIC (Spiroplasma citri): 25 µg/mL
Cc1ccc2ccc3ccc(C)nc3c2n1 [A]	–	–	–	MIC S.Citri (with Cu) (Spiroplasma citri): 0.03 µg/mL (≈ 0.144 µM)
Nc1nc(-c2ccccn2)cc2ccccc12 [XIIc (1), 1-amino-3-(2-pyridyl)isoquinoline]	> 100	0.4	0.2	–
Cc1cccc(-c2cc3ccccc3c(C)n2)n1 [XIIb, 1-methyl-3(6-methyl-2-pyridyl)isoquinoline]	–	0.03	0.05	MIC with Cu (M. synoviae): 0.1 µg/mL; MIC with Cu (M. meleagridis): 0.05 µg/mL; Resistance development: change of MIC (M. gallisepticum K514): without a significant increase of the MIC's
Cc1cccc(-c2cc3ccccc3c(N)n2)n1.Cl [IX (1), 1-amino-3-(6-methyl-2-pyridyl)-isoquinoline hydrochloride]	100	0.03	0.4	MIC with Cu (M. synoviae): 0.025 µg/mL; MIC with Cu (M. meleagridis): 0.025 µg/mL; Resistance development: change of MIC (M. gallisepticum K514): without a significant increase of the MIC's
COc1ccc2ccc3ccc(OC)nc3c2n1 [H]	–	–	–	MIC S.Citri (with Cu) (Spiroplasma citri): 1.5 µg/mL (≈ 6.24 µM)
CCc1nc(-c2ccccn2)cc2ccccc12 [XIIId, 1-ethyl-3-(2-pyridyl)isoquinoline]	–	0.06	0.2	–
Nc1nc(-c2ccccn2)cc2c(Cl)cccc12 [VIIIh]	> 100	0.05	0.4	–
CCCCCCCCCCCc1c(-c2ccccn2)ncc2ccccc12 [D]	–	–	–	MIC S.Citri (with Cu) (Spiroplasma citri): 0.8 µg/mL (≈ 2.22 µM)
CCCc1nc(-c2ccccn2)cc2ccccc12.Cl [XIIIf, 1-propyl-3-(2-pyridyl)isoquinoline hydrochloride]	–	0.03	–	–
Cn1ccnc1-c1nc(N)c2ccccc2n1.Cn1ccnc1-c1nc(N)c2ccccc2n1.O=[N+]([O-])[O-].[Cu+] [XVIb (1), Bis[4-amino-2-(1-methyl-1H-imidazole-2-yl)quinazoline]cuprous nitrate]	–	0.2	–	MIC (Mycoplasma gallisepticum): 6 µg/mL
Cc1cccc(-c2cc3ccccc3cn2)n1 [XIc, 3-(6-methyl-2-pyridyl)isoquinoline]	–	0.1	–	–
C=Cn1ccnc1-c1nc(N)c2ccccc2n1 [Example XVIIIa, 4-amino-2-(1-ethenyl-1H-imidazole-2-yl)quinazoline]	> 100	0.2	–	–
Cn1ccnc1-c1nc(N)c2ccccc2n1.O=[N+]([O-])[O-].O=[N+]([O-])[O-].[Cu+2] [XVIb (2), Mono[4-amino-2-(1-methyl-1H-imidazole-2-yl)quinazoline]cupric nitrate]	–	0.4	–	MIC (Mycoplasma gallisepticum): 6 µg/mL
Cc1ccc2c(N)nc(-c3ccccn3)cc2c1 [VIIIc]	3 (≈ 12.8 µM)	0.4	–	–
